ChEMBL document CHEMBL3046861, “QSAR STUDIES ON ADENOSINE KINASE INHIBITORS” (Med Chem Res, 2004)

Molecular target: Adenosine kinase (Homo sapiens) (UniProt P55263)
Sequence (P55263 2-362 limits assumed): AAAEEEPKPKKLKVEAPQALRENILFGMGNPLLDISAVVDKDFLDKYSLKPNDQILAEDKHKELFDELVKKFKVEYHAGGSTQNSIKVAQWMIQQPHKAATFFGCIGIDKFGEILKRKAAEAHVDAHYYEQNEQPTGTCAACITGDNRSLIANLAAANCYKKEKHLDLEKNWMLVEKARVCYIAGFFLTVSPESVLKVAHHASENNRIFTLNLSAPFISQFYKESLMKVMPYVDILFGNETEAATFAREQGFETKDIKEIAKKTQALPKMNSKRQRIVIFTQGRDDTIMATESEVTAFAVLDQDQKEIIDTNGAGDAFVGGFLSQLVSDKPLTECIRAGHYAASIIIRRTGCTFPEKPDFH
Description: Inhibition of adenosine kinase (unknown origin)

| SMILES | logIC50 |
| --- | --- |
| OC[C@H]1O[C@@H](n2cc(I)c3c(Cl)ncnc32)[C@H](O)[C@@H]1O | -1.62 |
| Nc1ncnc2c1c(Cl)cn2[C@@H]1O[C@H](CO)[C@@H](O)[C@H]1O | -0.678 |
| CSc1ncnc2c1c(I)cn2[C@@H]1O[C@H](C)[C@@H](O)[C@H]1O | -1.35 |
| COC[C@H]1O[C@@H](n2cc(I)c3c(N)ncnc32)[C@H](O)[C@@H]1O | 0.0792 |
| CC[C@H]1O[C@@H](n2cc(I)c3c(N)ncnc32)[C@H](O)[C@@H]1O | -1.22 |
| Nc1ncnc2c1c(Br)cn2[C@@H]1OC[C@@H](O)[C@H]1O | -0.301 |
| [N-]=[N+]=NC[C@H]1O[C@@H](n2cc(I)c3c(N)ncnc32)[C@H](O)[C@@H]1O | -1.46 |
| CNc1ncnc2c1c(I)cn2[C@@H]1O[C@H](C)[C@@H](O)[C@H]1O | 0.0792 |
| Nc1ncnc2c1c(Br)cn2[C@@H]1O[C@H](CO)[C@@H](O)[C@H]1O | -0.921 |
| C=C[C@H]1O[C@@H](n2cc(I)c3c(N)ncnc32)[C@H](O)[C@@H]1O | -1 |
| C[C@H]1O[C@@H](n2cc(I)c3c(S)ncnc32)[C@H](O)[C@@H]1O | 0.813 |
| [N-]=[N+]=NC[C@H]1O[C@@H](n2cc(Br)c3c(Cl)ncnc32)[C@H](O)[C@@H]1O | -1 |
| [N-]=[N+]=NC[C@H]1O[C@@H](n2cc(I)c3c(Cl)ncnc32)[C@H](O)[C@@H]1O | -2.05 |
| C[C@H]1O[C@@H](n2cc(I)c3c(Cl)ncnc32)[C@H](O)[C@@H]1O | -2.52 |
| NC[C@H]1O[C@@H](n2cc(Br)c3c(N)ncnc32)[C@H](O)[C@@H]1O | -3.7 |
| NC[C@H]1O[C@@H](n2cc(I)c3c(N)ncnc32)[C@H](O)[C@@H]1O | -3.22 |
| C[C@H]1O[C@@H](n2cc(Br)c3c(Cl)ncnc32)[C@H](O)[C@@H]1O | -1.3 |
| Cc1cn([C@@H]2O[C@H](C)[C@@H](O)[C@H]2O)c2ncnc(Cl)c12 | -0.272 |
| [N-]=[N+]=NC[C@H]1O[C@@H](n2cc(Br)c3c(N)ncnc32)[C@H](O)[C@@H]1O | -1.2 |
| C[C@H]1O[C@@H](n2cc(C#N)c3c(N)ncnc32)[C@H](O)[C@@H]1O | -0.509 |
| CSc1cn([C@@H]2O[C@H](C)[C@@H](O)[C@H]2O)c2ncnc(N)c12 | 0.13 |
| CSc1cn([C@@H]2O[C@H](C)[C@@H](O)[C@H]2O)c2ncnc(Cl)c12 | -1.16 |
| NC[C@H]1O[C@@H](n2cc(I)c3c(Cl)ncnc32)[C@H](O)[C@@H]1O | -4 |
